Series [1] relates to liver slice. The series is described as follows: Determination of the metabolites by in vitro test (liver slice, reversed phase HPLC). As to conditions: 2-bromooctanoic acid added as inhibitor for the β-oxidation, liver slice incubation. In kind it is in vitro ADME, rat. The protocol:
(§1) Under anesthetized, a rat was subjected to celiotomy and bleeded by perfusion via the portal vein with 20 mM of tris-HCl buffer solution (containing 100 mM of potassium chloride, 5 mM of magnesium chloride, 5 mM of potassium dihydrogen phosphate, pH 7.4) which is saturated with O2/CO2 (95/5) gas. Then, the liver was excised and pieces of liver slice having the thickness of 300 µm were prepared by using Stadie, Riggs type of slicer (manufactures by NATSUME SEISAKUSHO). After weighing, each pieces of liver slices were divided into two groups. […] The samples were analyzed by reversed phase HPLC under the same conditions employed in Determination of metabolites by in vivo test. Survival rate of the cells in the liver slice sample used in the test was determined by measuring the activity of lactic acid dehydrogenase (LDH) leaked into the culture medium. […]
In conducting the in vitro experiment for determining the metabolite more than 90% of the radioactivity in liver homogenate was extracted.
21.2 ± 3.0% of the whole radioactivity was eluted at the fraction retained at 17 minutes. […]

For series [2], the system named is liver slice. The series is described as follows: Survival of cells in the liver slice by lactic acid dehydrogenase (LDH) leaked into the medium. It counts as cell-based, rat. As to conditions: inhibition group (2-bromooctanoic acid 100 µM), at the termination point of experiments; no significant difference from control group. The procedure:
as §1, with “groups. One is inhibiting group which was preincubated in 20mM tris-HCl buffer solution at 37°C for 5 minutes, in the presence of 2-bromooctanoic acid (the final concentration: 100 µM) as β-oxidation inhibitor, and another one is control group which was preincubated in 20 mM tris-HCl buffer solution at 37°C for 5 minutes, without the inhibitor. Next, [^99mTc]MAMA-HA (3.7 MBq) was added, and incubation was carried out under bubbling O2/CO2 (95/5) gas at 37°C for 60 minutes with shaking 60 times per minute.” for “groups.”

Structures are written as SMILES.

On to `CCCCCCC(Br)C(=O)O` (centres unmarked) [2-bromooctanoic acid], for which, in the series on liver slice [1], the “formation of [^99mTc]MAMA-BA from [^99mTc]MAMA-HA” value is “inhibited completely”. Further, the LDH activities in the series on liver slice [2] is recorded as 3,285 ± 367 IU/L.

Values taken from patent EP1046401A2, “Fatty acid derivative labelled with a radioactive transition metal” (NIHON MEDI-PHYSICS Co., Ltd., priority 1999, dated 2000).
